Laboratory results reported in ChEMBL document CHEMBL4359901, “Cyclic enaminone as new chemotype for selective cyclooxygenase-2 inhibitory, anti-inflammatory, and analgesic activities” (Eur J Med Chem, 2019).
pIC50: −log10 of the molar value. One block for each compound: values may come before it.

What was measured:
[1] = Ulcerogenicity in Sprague-Dawley rat assessed as formation of ulcer at 20 mg/kg, po after 1 hr by microscopic analysis; format: toxicity, organism-based; conditions: in vivo
[2] = Antioxidant activity assessed as DPPH radical scavenging activity incubated for 20 mins by spectrophotometric method; format: functional
[3] = Antioxidant activity assessed as DPPH radical scavenging activity at 20 uM/ml incubated for 20 mins by spectrophotometric method relative to control; format: functional
[4] = Antioxidant activity assessed as DPPH radical scavenging activity at 80 uM/ml incubated for 20 mins by spectrophotometric method relative to control; format: functional
[5] = Antioxidant activity assessed as DPPH radical scavenging activity at 60 uM/ml incubated for 20 mins by spectrophotometric method relative to control; format: functional
[6] = Antioxidant activity assessed as DPPH radical scavenging activity at 40 uM/ml incubated for 20 mins by spectrophotometric method relative to control; format: functional
[7] = Antioxidant activity assessed as DPPH radical scavenging activity at 10 uM/ml incubated for 20 mins by spectrophotometric method relative to control; format: functional
[8] = test system: Rattus norvegicus; assay: Analgesic activity in Wistar albino rat assessed as reaction time at 25 mg/kg, ip measured after 120 mins for 15 secs by hot plate method (reference value: 4.32 +/- 0.52 sec); format: functional
[9] = test system: Rattus norvegicus; assay: Antiinflammatory activity in Wistar albino rat assessed as reduction in carrageenan-induced paw volume at 12.5 mg/kg, ip measured after 1 hr by plethysmometric method (reference value: 1.43 +/- 0.19 ml); format: functional
[10] = test system: Rattus norvegicus; assay: Analgesic activity in Wistar albino rat assessed as reaction time at 12.5 mg/kg, ip measured after 60 mins for 15 secs by hot plate method (reference value: 4.67 +/- 0.52 sec); format: functional
[11] = test system: Rattus norvegicus; assay: Antiinflammatory activity in Wistar albino rat assessed as reduction in carrageenan-induced paw edema at 25 mg/kg, ip measured after 3 hrs by plethysmometric method (reference value: 1.75 +/- 0.33 ml); format: functional
[12] = test system: Rattus norvegicus; assay: Analgesic activity in Wistar albino rat assessed as reaction time at 12.5 mg/kg, ip measured after 120 mins for 15 secs by hot plate method (reference value: 4.32 +/- 0.52 sec); format: functional
[13] = test system: Rattus norvegicus; assay: Antiinflammatory activity in Wistar albino rat assessed as reduction in carrageenan-induced paw edema at 25 mg/kg, ip measured after 1 hr by plethysmometric method (reference value: 1.43 +/- 0.19 ml); format: functional
[14] = test system: Rattus norvegicus; assay: Analgesic activity in Wistar albino rat assessed as reaction time at 25 mg/kg, ip measured after 60 mins for 15 secs by hot plate method (reference value: 4.67 +/- 0.52 sec); format: functional
[15] = test system: Rattus norvegicus; assay: Analgesic activity in Wistar albino rat assessed as reaction time at 25 mg/kg, ip measured after 180 mins for 15 secs by hot plate method (reference value: 3.87 +/- 0.38 sec); format: functional
[16] = test system: Rattus norvegicus; assay: Analgesic activity in Wistar albino rat assessed as reaction time at 25 mg/kg, ip measured after 30 mins for 15 secs by hot plate method (reference value: 4.21 +/- 0.41 sec); format: functional
[17] = test system: Rattus norvegicus; assay: Antiinflammatory activity in Wistar albino rat assessed as reduction in carrageenan-induced paw volume at 12.5 mg/kg, ip measured after 3 hrs by plethysmometric method (reference value: 1.75 +/- 0.33 ml); format: functional
[18] = test system: Rattus norvegicus; assay: Analgesic activity in Wistar albino rat assessed as reaction time at 12.5 mg/kg, ip measured after 180 mins for 15 secs by hot plate method (reference value: 3.87 +/- 0.38 sec); format: functional
[19] = molecular target: Prostaglandin G/H synthase 1 (Ovis aries) (UniProt P05979); assay: Inhibition of ovine COX1 assessed as reduction in PGF2alpha at 10 uM incubated for 2 mins using arachidonic acid as substrate by ELISA relative to control
[20] = test system: Rattus norvegicus; assay: Analgesic activity in Wistar albino rat assessed as reaction time at 12.5 mg/kg, ip measured after 30 mins for 15 secs by hot plate method (reference value: 4.21 +/- 0.41 sec); format: functional
[21] = Antioxidant activity assessed as DPPH radical scavenging activity at 100 uM/ml incubated for 20 mins by spectrophotometric method relative to control; format: functional
[22] = molecular target: Prostaglandin G/H synthase 2 (Homo sapiens) (UniProt P35354); assay: Inhibition of recombinant human COX2 assessed as reduction in PGF2alpha at 10 uM incubated for 2 mins using arachidonic acid as substrate by ELISA relative to control
[23] = Selectivity index, ratio of IC50 for inhibition of ovine COX1 to IC50 for inhibition of recombinant human COX2
[24] = test system: Rattus norvegicus; assay: Antiinflammatory activity in Wistar albino rat assessed as reduction in carrageenan-induced paw volume at 12.5 mg/kg, ip measured after 2 hrs by plethysmometric method (reference value: 1.58 +/- 0.21 ml); format: functional
[25] = test system: Rattus norvegicus; assay: Antiinflammatory activity in Wistar albino rat assessed as reduction in carrageenan-induced paw edema at 25 mg/kg, ip measured after 2 hrs by plethysmometric method (reference value: 1.58 +/- 0.21 ml); format: functional

pIC50 [2]: > 4.70
Structure (SMILES): O=C1O[C@H]([C@@H](O)CO)C(O)=C1O [ASCORBIC ACID]
Activity [3]: 50.8%
Activity [4]: 100%
Activity [5]: 91.1%
Activity [6]: 74.7%
Activity [7]: 27.1%

inhibition [19]: 30.5%
inhibition [22]: 41.4%
Structure (SMILES): O=C1C=C(NCc2ccco2)CC1

inhibition [19]: 27.2%
inhibition [22]: 48.4%
Structure (SMILES): O=C1C=C(NCc2ccco2)CCC1

inhibition [19]: 24.2%
inhibition [22]: 40.5%
Structure (SMILES): O=C1C=C(NCc2ccccc2)CCC1

inhibition [19]: 43.5%
inhibition [22]: 22.2%
Structure (SMILES): O=C1C=C(Nc2ccc(F)cc2)CC1

The remaining lines, values behind:

Structure (SMILES): COc1ccc2c(c1)c(CC(=O)O)c(C)n2C(=O)c1ccc(Cl)cc1 [INDOMETHACIN]
Activity [1]: Toxic

Structure (SMILES): CC(C)(C)OC(=O)N(C1=CC(=O)CCC1)c1ccc(Cl)cc1
Time [8]: 9.98 s
Activity [9]: 1.24 mL
Time [10]: 6.29 s
Activity [11]: 1.19 mL
Time [12]: 7.99 s
Activity [13]: 1.3 mL
Time [14]: 6.87 s
pIC50 [2]: 4.37
Time [15]: 7.85 s
Activity [3]: 36.5%
Activity [4]: 77.2%
Time [16]: 6.53 s
Activity [17]: 1.18 mL
Time [18]: 7.95 s
inhibition [19]: 30.5%
Time [20]: 5.59 s
Activity [21]: 89.1%
Activity [5]: 63%
inhibition [22]: 73.5%
Ratio IC50 [23]: 19.4
Activity [24]: 1.28 mL
Activity [25]: 1.24 mL
Activity [6]: 49.6%
Activity [7]: 23.1%

Structure (SMILES): O=C1C=C(NN2CCCCC2)CCC1
inhibition [19]: 11.3%
inhibition [22]: 43.2%

Structure (SMILES): O=C1C=C(N2CCCC2)CCC1
inhibition [19]: 12.5%
inhibition [22]: 45.6%

Structure (SMILES): O=C1C=C(Nc2ccc(Cl)cc2)CC1
inhibition [19]: 23.7%
inhibition [22]: 33.5%

Structure (SMILES): O=C1C=C(Nc2ccc([N+](=O)[O-])cc2)CCC1
inhibition [19]: 31%
inhibition [22]: 24.2%

Structure (SMILES): CC1(C)CC(=O)C=C(Nc2ccc(Cl)cc2)C1
inhibition [19]: 16.4%
inhibition [22]: 42.6%

Structure (SMILES): O=C1C=C(Nc2ccc(Cl)cc2)CCC1
Time [8]: 8.83 s
Activity [9]: 1.23 mL
Time [10]: 7.09 s
Activity [11]: 1.19 mL
Time [12]: 7.16 s
Activity [13]: 1.29 mL
Time [14]: 7.72 s
pIC50 [2]: 4.15
Time [15]: 8.2 s
Activity [3]: 24%
Activity [4]: 61.3%
Time [16]: 5.48 s
Activity [17]: 1.23 mL
Time [18]: 7.24 s
inhibition [19]: 12.9%
Time [20]: 5.34 s
Activity [21]: 78.2%
Activity [5]: 46.7%
inhibition [22]: 88.6%
Ratio IC50 [23]: 74.1
Activity [24]: 1.22 mL
Activity [25]: 1.24 mL
Activity [6]: 33.7%
Activity [7]: 12.7%
